Data as given in patent publication US6900198B2, “Synthetic catalytic free radical scavengers useful as antioxidants for prevention and therapy of disease” (Eukarion, Inc., priority 1995, dated 2005).

Legend:
Rat brain slices = assay: Rat brain slice ischemia EPSP system; assay type: cell-based; settings: 50 μM; untreated slices recovered only about 40%
Description: A widely used assay to determine the therapeutic potential of molecules in brain ischemia (stroke) consists of evaluating their ability to prevent irreversible damage induced by an anoxic episode in brain slices maintained under physiological conditions. Rat brain slices were maintained at 35° C. in an interface chamber in an artificial cerebrospinal fluid containing: 124 mM NaCl, 3 mM KCl, 1.25 mM KH2PO4, 3 mM CaCl, 1 mM MgCl2, 26 mM NaHCO3, 10 mM D-glucose, and 2 mM L-ascorbate, continuously gassed with a mixture of O2:CO2 (95:5). The atmosphere of the chamber was also continuously gased with the mixture of O2:CO2 (95:5), except during the anoxic episode when it was replaced by N2. Axons were electrically stimulated and the evoked excitatory post-synaptic potentials (EPSPs) were recorded using microelectrodes.
The extent of permanent damage can be quantified by measuring both the amplitude (in mV) and the initial slope (in mV/msec) of the EPSP.
After 5 minutes of baseline recording, O2 was replaced by N2 for an average of 5 minutes. O2 was then reintroduced and recording was continued for another 50 minutes. […] In contrast, recovery in untreated brain slices was only about 40% of pre-ischemia levels.
As an additional assessment of efficacy, the percentage of viable slices following repeated ischemic episodes was evaluated. […]

SJL female mice = assay: Experimental Autoimmune Encephalitis (EAE); assay type: in vivo
Source text: EAE is an animal model of multiple sclerosis.
Mice in both groups were immunized with an encephalitogenic PLP peptide in complete Freund's adjuvant subcutaneously, followed by Petrussis Toxin (IV). Petrussis toxin was repeated on day 3 post immunization.
Animals were scored as follows:
Stage I: Limp tail syndrome
Stage II: Hind leg paralysis
Stage III: Hind leg paralysis-Dragging movement
Stage IV: Paralytic immobility, weight loss

[1] = system: endotoxin-induced ALI in pigs; assay: Acute lung injury in endotoxemic pigs; assay type: in vivo; settings: treatment begun prior to LPS infusion
Description: All pigs were pre-treated at T=−18 h with Escherichia coli 0111:B4 LPS (20 μg/kg). Pigs in the RL group (n=4) received no further treatment. […] Lung wet-to-dry weight ratio was determined post-mortem. Lung lipid peroxidation was estimated fluorometrically by measuring thiobarbituric acid reactive products in the lipid fraction of lung parenchymal tissue harvested at T=300 min.

[2] = SOD activity, cytochrome c as acceptor, IC50 (Example 2); assay type: biochemical; settings: read-out: SOD activity IC50 (half-maximally active concentration)
Description: Superoxide dismutase (SOD) activity was assayed by following the inhibition of the reduction of an electron acceptor molecule in the presence of the free-radical generating system xanthine/xanthine oxidase (McCord et al. (1973) Superoxide and Superoxide Dismutase in “Oxidases and Related Redox Systems, vol. I, King et al. eds., University Park press, Baltimore, pp. 51-76). The assay mixture consisted of 50 mM sodium phosphate, pH 7.8, 120 μM xanthine, 0.2 units/ml xanthine oxidase, with acceptor molecule and salen manganese compound, as indicated. Assays were conducted at 27±0.2° C. using a water-jacketed cell holder in a Beckman DU7400 spectrophotometer. In most cases, oxidized cytochrome c, at 0.13 mg/ml, was employed as acceptor and its reduction was monitored spectrophotometrically at 550 nm. In some experiments, nitroblue tetrazolium (NBT), at 80 μM, was substituted for cytochrome c as the acceptor. NBT reduction was also monitored at 550 nm. An estimated extinction coefficient for NBT reduction, 20,800 M^−1cm^−1, determined empirically by exhaustive reduction of NBT in the reaction mixture described above, was employed where indicated. This value agreed well with reported extinction coefficients for reduced tetrazolium dyes. […] Conversion of xanthine to urate was calculated using ε290's of […] for urate and 4050 M^−1cm^−1 for xanthine. […]

[3] = C7 inactivation in H2O2, HPLC; assay type: physicochemical
Description: Where indicated, 1 mM ABTS was also present. Components were mixed and, after various incubations times, a 30 μl aliquot was injected onto the HPLC. The mixtures were chromatographed on an octadecyl-silica column using a mobile phase consisting of 60% methanol:40% 0.1 M NaCl and a flow rate of 1 ml/min. […] A third component, with a retention time of 4.8 min, was detectable under some conditions; its appearance and disappearance was monitored but it was not further analyzed. In this system, ABTS and its oxidized product had retention times of 3.4 and 3.1-min, respectively, well resolved from the peaks of interest. Absorbance spectra collected during each run allowed the identity of C7 and salicylaldehyde to be verified. All peaks were integrated based upon their absorbance at 240 nm. The results are expressed as the percentage of maximum peak area. […] For the two putative breakdown products, this is equivalent to the largest peak observed during the course of the ˜2000 sec incubation period.

[4] = 100 μM C7, 1 mM H2O2, with 1 mM ABTS

[Cl][Mn]1[O]c2ccccc2C=NCCN=Cc2ccccc2[O]1 [Compound C7]
recovery of EPSP amplitude and slopes after ischemia/reoxygenation (Rat brain slices): recovered to pre-ischemia levels | mice that developed symptomatic EAE (SJL female mice; fifth week, three weeks after treatment was stopped, group of 10 mice): six | mice that developed symptomatic EAE (SJL female mice; third week following immunization, 1 mg/mouse daily IP, control 8 of 20): one of 10 | effect on manifestations of LPS-induced ALI [1]: prevents many of the manifestations of LPS-induced ALI | IC50 [2]: 3.2 µM | half life of the C7 peak ([3]; 100 μM C7, 1 mM H2O2, pH 8.1, absence of ABTS): ~40 s | C7 peak that disappeared rapidly [3, 4]: about 20% | C7 remaining over the entire ~2000 sec incubation [3, 4]: 80%
